The values that follow come from patent publication US20260200946A1, “KRAS(G12V) INHIBITORS” (Ranok Therapeutics (Hangzhou) Co. Ltd., priority 2022, published 2026).

In general, EC50 refers to the concentration at which the effect is half-maximal.

The target of one test is T1, KRAS(G12V)/SOS1 (Homo sapiens, UniProt P01116, G12V).
T1 construct: purchased Cisbio 63ADK000CB18PEH
In words: KRAS(G12V)/SOS1 homogeneous time-resolved fluorescence (HTRF) assay. The test is classed as binding. Conditions: absence of GTP; 4° C., 3 hours; read-out: HTRF of KRASG12V-SOS1. As for the experimental part:
Binding of test compounds to KRAS(G12V) target protein, which in turn blocks KRAS(G12V) interaction with the SOS1 protein, was measured in the absences of GTP by homogeneous time-resolved fluorescence using the KRAS-G12V/SOS1 Binding Assay Kit (Cisbio, 63ADK000CB18PEH), following the manufacturer's instructions, except as noted. 3-fold serial dilutions of each test compound were prepared ranging from 20 µM to 1.02 nM. The test compound was mixed and incubated with reaction components, incubated in a sealed plate at 4° C. for 3 hours and fluorescence was measured using a PerkinElmer Envision plate reader. The KRAS(G12V)-SOS1 IC50 values (the concentration of 50% of the maximal inhibition) were calculated using GraphPad Prism 8.0 software.
A general note: In TR-FRET formats the signal depends on donor and acceptor labels being close together.

The next test deals with SW620 cells. In words: Cancer cell line proliferation (CellTiter-Glo), SW620. The test is classed as cell-based. The settings on record: Homo sapiens, SW-620, SW620 colorectal adenocarcinoma, homozygous G12V, 72 hr. As for the experimental part: Cell lines were cultured essentially according to ATCC recommendations. SW620 and NCIH727 cells were plated in 384-well tissue culture plates at 1,000 cells/well and incubated at 37° C./5% CO2 for 72 hr in 40 μl of media. […] Each cell line was then treated with test compounds at various concentrations with a final concentration of 0.5% DMSO/well, and then incubated at 37° C./5% CO2 for 72 hr. 40 μl of CellTiter-Glo® Reagent (Promega Corporation, Madison, WI) was added to each well and processed according manufacturer's protocol. Results were analyzed and IC50 values were calculated in GraphPad 8.0 software.
A general note: ATP-based viability assays read luminescence as a measure of living cells.

In another test the test system is NCIH727 cells. In words: Cancer cell line proliferation (CellTiter-Glo), NCI-H727. The test is classed as cell-based. The settings on record: Homo sapiens, 72 h, NCIH727 lung carcinoid, heterozygous G12V. The essentials:
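NCI-H727 cells (1,000/well) were grown 72 h at 37 °C/5% CO2, then exposed to compound at various concentrations (0.5% DMSO final) for a further 72 h. Viability was read by CellTiter-Glo luminescence, and IC50 values were calculated from the dose-response.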

T1 sequence (P01116 1-188 isoform P01116-2 G12V): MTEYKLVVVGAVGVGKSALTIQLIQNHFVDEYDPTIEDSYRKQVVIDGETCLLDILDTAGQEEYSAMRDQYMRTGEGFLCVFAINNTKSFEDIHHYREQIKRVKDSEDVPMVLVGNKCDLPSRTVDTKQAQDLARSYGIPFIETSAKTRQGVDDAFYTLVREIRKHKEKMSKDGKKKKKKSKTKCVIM

As for `C#Cc1c(F)ccc2cc(O)cc(-c3ncc4c(N5CC6CCC(C5)N6C(=O)N(C)C)nc(OCC5(CN6CCC(F)CC6)CC5)nc4c3F)c12` [Example 8], the IC50 at KRAS(G12V)/SOS1 is less than 100 nM. Further, the EC50 in the test with SW620 cells and in the test with NCIH727 cells was greater than 1000 nM in each case.

For the molecule `C#Cc1c(F)ccc2cc(O)cc(-c3nc(OC)c4c(N5CC6CCC(C5)N6C(=O)NC(C)C#N)nc(OCC5(CN6CCC(F)CC6)CC5)nc4c3F)c12` (centres unmarked) [Example 38], on KRAS(G12V)/SOS1, the IC50 was less than 100 nM. Besides, the EC50 with SW620 cells and in the test with NCIH727 cells was 100 to 1000 nM in each case.

Regarding `C#Cc1c(F)ccc2cc(O)cc(-c3nc(OC)c4c(N5CC6CCC(C5)N6C(=O)CCC#N)nc(OCC5(CN6CC7CC7C6)CC5)nc4c3F)c12` (centres unmarked) [Example 99], the EC50 is 100 to 1000 nM with SW620 cells and less than 100 nM in the test with NCIH727 cells.

With `C#Cc1c(F)ccc2cc(O)cc(-c3ncc4c(N5CC6CCC(C5)N6C(=O)CC(C)(C)C)nc(OCC5(CN6CCC(F)CC6)CC5)nc4c3F)c12` [Example 5], the IC50 at KRAS(G12V)/SOS1 fell in the range of 100 to 1000 nM. For the same molecule, the EC50 in the test on SW620 cells and in the test on NCIH727 cells was greater than 1000 nM throughout.

For the molecule `C#Cc1c(F)ccc2cc(O)cc(-c3ncc4c(N5CC6CCC(C5)N6C(=O)CC(F)(F)F)nc(OCC5(CN6CCC(F)CC6)CC5)nc4c3F)c12` [Example 39], on KRAS(G12V)/SOS1, the IC50 was in the range of 100 to 1000 nM. Also, the EC50 in the test with SW620 cells and in the test on NCIH727 cells was greater than 1000 nM each time.

On to `C#Cc1c(F)ccc2cc(O)cc(-c3ncc4c(N5CC6CCC(C5)N6C(=O)NC5CCCC5)nc(OCC5(CN6CCC(F)CC6)CC5)nc4c3F)c12` [Example 48], for which, on KRAS(G12V)/SOS1, the IC50 was less than 100 nM. The EC50 in the test on SW620 cells and with NCIH727 cells was greater than 1000 nM each time.

For `C#Cc1c(F)ccc2cc(O)cc(-c3ncc4c(N5CC6CCC(C5)N6C(=O)NC5(C#N)CC5)nc(OCC5(CN6CCC(F)CC6)CC5)nc4c3F)c12` [Example 35], the IC50 on KRAS(G12V)/SOS1 is 100 to 1000 nM. Moreover, the EC50 with SW620 cells and in the test with NCIH727 cells was 100 to 1000 nM in each case.

In the case of `C#Cc1c(F)ccc2cc(O)cc(-c3nc(OC)c4c(N5CC6CCC(C5)N6C(=O)NCC(F)(F)F)nc(OCC5(CN6CCC(F)CC6)CC5)nc4c3F)c12` [Example 26], at KRAS(G12V)/SOS1, the IC50 is less than 100 nM. Further, the EC50 in the test on SW620 cells was greater than 1000 nM; in the test with NCIH727 cells, 100 to 1000 nM.

As to `C#Cc1c(F)ccc2cc(O)cc(-c3nc(OC)c4c(N5CC6CCC(C5)N6C(=O)CCOC(F)(F)F)nc(OCC5(CN6CC7CC7C6)CC5)nc4c3F)c12` (centres unmarked) [Example 147], the EC50 in the test with SW620 cells and with NCIH727 cells was 100 to 1000 nM in each case.

Consider `C#Cc1c(F)ccc2cc(O)cc(-c3ncc4c(N5CC6CCC(C5)N6C(=O)NC(=O)C(C)(C)C)nc(OCC5(CN6CCC(F)CC6)CC5)nc4c3F)c12` [Example 17], for which the IC50 at KRAS(G12V)/SOS1 was 100 to 1000 nM. The EC50 with SW620 cells and with NCIH727 cells was greater than 1000 nM each time.

As for `C#Cc1c(F)ccc2cc(O)cc(-c3ncc4c(N5CC6CCC(C5)N6C(=O)NC5(C(F)(F)F)CC5)nc(OCC5(CN6CCC(F)CC6)CC5)nc4c3F)c12` [Example 51], the IC50 at KRAS(G12V)/SOS1 is less than 100 nM. Further, the EC50 in the test on SW620 cells and in the test on NCIH727 cells was greater than 1000 nM throughout.

Take `C#Cc1c(F)ccc2cc(O)cc(-c3nc(OC)c4c(N5CC6CCC(C5)N6C(=O)NC5(C#N)CC5)nc(OCC5(CN6CCC(F)CC6)CC5)nc4c3F)c12` [Example 34]: the IC50 on KRAS(G12V)/SOS1 is 100 to 1000 nM. Further, the EC50 with SW620 cells and with NCIH727 cells was 100 to 1000 nM in each case.

As to `C#Cc1c(F)ccc2cc(O)cc(-c3nc(OC)c4c(N5CC6CCC(C5)N6C(=O)CC(C)C#N)nc(OCC5(CN6CC7CC7C6)CC5)nc4c3F)c12` (centres unmarked) [Example 140], the EC50 with SW620 cells is 100 to 1000 nM; with NCIH727 cells it was less than 100 nM.

In the case of `C#Cc1c(F)ccc2cc(O)cc(-c3ncc4c(N5CC6CCC(C5)N6C(=O)NC#N)nc(OCC5(CN6CCC(F)CC6)CC5)nc4c3F)c12` [Example 29], on KRAS(G12V)/SOS1, the IC50 was 100 to 1000 nM. In addition, the EC50 with SW620 cells and in the test with NCIH727 cells was greater than 1000 nM throughout.

Take `C#Cc1c(F)ccc2cc(O)cc(-c3ncc4c(N5CC6CCC(C5)N6S(=O)(=O)CC#N)nc(OCC5(CN6CCC(F)CC6)CC5)nc4c3F)c12` [Example 33]: on KRAS(G12V)/SOS1, the IC50 fell in the range of 100 to 1000 nM. Moreover, the EC50 in the test on SW620 cells and with NCIH727 cells was greater than 1000 nM in each case.

`C#Cc1c(F)ccc2cc(O)cc(-c3ncc4c(N5CC6CCC(C5)N6C(=O)C(O)O)nc(OCC5(CN6CCC(F)CC6)CC5)nc4c3F)c12` [Example 15]: the IC50 on KRAS(G12V)/SOS1 lay within 100 to 1000 nM. Besides, the EC50 in the test on NCIH727 cells was greater than 1000 nM.

As to `C#Cc1c(F)ccc2cc(O)cc(-c3nc(OC)c4c(N5CC6CCC(C5)N6C(=O)NCC(F)(F)F)nc(OCC5(CN6CC7CC7C6)CC5)nc4c3F)c12` (centres unmarked) [Example 129], the values for the EC50 in the test with SW620 cells and in the test with NCIH727 cells were 100 to 1000 nM and less than 100 nM, respectively.

As for `C#Cc1c(F)ccc2cc(O)cc(-c3nc(OC)c4c(N5CC6CCC(C5)N6C(=O)NC(C)(C#N)CC)nc(OCC5(CN6CCC(F)CC6)CC5)nc4c3F)c12` (centres unmarked) [Example 64], the IC50 on KRAS(G12V)/SOS1 is less than 100 nM. Also, the EC50 in the test on NCIH727 cells is less than 100 nM.

On to `[2H]C([2H])([2H])Oc1nc(-c2cc(O)cc3ccc(F)c(C#C)c23)c(F)c2nc(OCC3(CN4CC5CC5C4)CC3)nc(N3CC4CCC(C3)N4C(=O)C(C)(C)C#N)c12` (centres unmarked) [Example 119], for which the IC50 at KRAS(G12V)/SOS1 was less than 100 nM. For the same molecule, in the test on NCIH727 cells, the EC50 is greater than 1000 nM.

As to `C#Cc1c(F)ccc2cc(O)cc(-c3ncc4c(N5CC6CCC(C5)N6C(=O)NC5CCOC5)nc(OCC5(CN6CCC(F)CC6)CC5)nc4c3F)c12` (centres unmarked) [Example 9], on KRAS(G12V)/SOS1, the IC50 is less than 100 nM. Also, in the test with NCIH727 cells, the EC50 was greater than 1000 nM.

With `C#Cc1c(F)ccc2cc(O)cc(-c3nc(OC)c4c(N5CC6CCC(C5)N6C(=O)NCC#N)nc(OCC5(CN6CC7CC7C6)CC5)nc4c3F)c12` (centres unmarked) [Example 104], the EC50 with SW620 cells and with NCIH727 cells was 100 to 1000 nM throughout.

On to `C#CCCC(=O)N1C2CCC1CN(c1nc(OCC3(CN4CCC(F)CC4)CC3)nc3c(F)c(-c4cc(O)cc5ccc(F)c(C#C)c45)nc(OC)c13)C2` [Example 61], for which the IC50 at KRAS(G12V)/SOS1 is less than 100 nM. Moreover, in the test on NCIH727 cells, the EC50 lay in the range of 100 to 1000 nM.

For the molecule `C#Cc1c(F)ccc2cc(O)cc(-c3ncc4c(N5CC6CCC(C5)N6C(=O)Nc5ccn[nH]5)nc(OCC5(CN6CCC(F)CC6)CC5)nc4c3F)c12` [Example 10], the IC50 on KRAS(G12V)/SOS1 is less than 100 nM. In addition, the EC50 in the test on NCIH727 cells is greater than 1000 nM.

Take `C#Cc1c(F)ccc2cc(O)cc(-c3nc(OC)c4c(N5CC6CCC(C5)N6C(=O)NC(C)(C)C#N)nc(OCC5(CN6CCC(F)CC6)CC5)nc4c3F)c12` [Example 65]: the IC50 at KRAS(G12V)/SOS1 was less than 100 nM. The molecule further came in with an EC50 in the test with NCIH727 cells of less than 100 nM.

As to `C#Cc1c(F)ccc2cc(O)cc(-c3nc(OC)c4c(N5CC6CCC(C5)N6C(=O)C(C#N)CC#N)nc(OCC5(CN6CC7CC7C6)CC5)nc4c3F)c12` (centres unmarked) [Example 109], the EC50 in the test on SW620 cells and with NCIH727 cells was 100 to 1000 nM in each case.

Take `C#Cc1c(F)ccc2cc(O)cc(-c3nc(OC)c4c(N5CC6CCC(C5)N6C(=O)NC(C)C#N)nc(OCC5(CN6CC7CC7C6)CC5)nc4c3F)c12` (centres unmarked) [Example 105]: the EC50 was 100 to 1000 nM in the test with SW620 cells and less than 100 nM in the test on NCIH727 cells.

Turning to `C#Cc1c(F)ccc2cc(O)cc(-c3ncc4c(N5CC6CCC(C5)N6C(=O)CC(C)C)nc(OCC5(CN6CCC(F)CC6)CC5)nc4c3F)c12` [Example 4], the IC50 at KRAS(G12V)/SOS1 lay in the range of 100 to 1000 nM. The same molecule displayed an EC50 in the test with NCIH727 cells greater than 1000 nM.

For the molecule `C#Cc1c(F)ccc2cc(O)cc(-c3nc(OC)c4c(N5CC6CCC(C5)N6C(=O)NCCF)nc(OCC5(CN6CCC(F)CC6)CC5)nc4c3F)c12` [Example 62], the IC50 at KRAS(G12V)/SOS1 was less than 100 nM. The molecule further registered an EC50 in the test on NCIH727 cells of 100 to 1000 nM.
